Data set [1] is described as follows: (§1) Inhibition of SARS coronavirus papain-like protease (amino acids 1541 to 1855) expressed in Escherichia coli BL21 (DE3) cells assessed as decrease in AMC release using Z-RLRGG-AMC as substrate by multimode plate reader analysis. Set-up: species or system Severe acute respiratory syndrome-related coronavirus.
Another data set relates to SARS-CoV. Kind of data set: Antiviral activity against SARS coronavirus infected in african green monkey Vero E6 cells assessed as cell viability after 48 hrs by Cell Titer-Glo luminescent assay. It counts as functional, organism-based. Particulars: Severe acute respiratory syndrome-related coronavirus.
Data set [2] addresses Replicase polyprotein 1a (Human coronavirus NL63) (UniProt P0C6U6). Kind of data set: Inhibition of human coronavirus NL63 PLP2 (amino acids 1565 to 1894) expressed in Escherichia coli BL21 (DE3) cells assessed as reduction of AMC release using Z-RLRGG-AMC as substrate at 100 uM by multimode plate reader analysis.
Target sequence in this assay (P0C6U6 whole entry, the tested form may be a part): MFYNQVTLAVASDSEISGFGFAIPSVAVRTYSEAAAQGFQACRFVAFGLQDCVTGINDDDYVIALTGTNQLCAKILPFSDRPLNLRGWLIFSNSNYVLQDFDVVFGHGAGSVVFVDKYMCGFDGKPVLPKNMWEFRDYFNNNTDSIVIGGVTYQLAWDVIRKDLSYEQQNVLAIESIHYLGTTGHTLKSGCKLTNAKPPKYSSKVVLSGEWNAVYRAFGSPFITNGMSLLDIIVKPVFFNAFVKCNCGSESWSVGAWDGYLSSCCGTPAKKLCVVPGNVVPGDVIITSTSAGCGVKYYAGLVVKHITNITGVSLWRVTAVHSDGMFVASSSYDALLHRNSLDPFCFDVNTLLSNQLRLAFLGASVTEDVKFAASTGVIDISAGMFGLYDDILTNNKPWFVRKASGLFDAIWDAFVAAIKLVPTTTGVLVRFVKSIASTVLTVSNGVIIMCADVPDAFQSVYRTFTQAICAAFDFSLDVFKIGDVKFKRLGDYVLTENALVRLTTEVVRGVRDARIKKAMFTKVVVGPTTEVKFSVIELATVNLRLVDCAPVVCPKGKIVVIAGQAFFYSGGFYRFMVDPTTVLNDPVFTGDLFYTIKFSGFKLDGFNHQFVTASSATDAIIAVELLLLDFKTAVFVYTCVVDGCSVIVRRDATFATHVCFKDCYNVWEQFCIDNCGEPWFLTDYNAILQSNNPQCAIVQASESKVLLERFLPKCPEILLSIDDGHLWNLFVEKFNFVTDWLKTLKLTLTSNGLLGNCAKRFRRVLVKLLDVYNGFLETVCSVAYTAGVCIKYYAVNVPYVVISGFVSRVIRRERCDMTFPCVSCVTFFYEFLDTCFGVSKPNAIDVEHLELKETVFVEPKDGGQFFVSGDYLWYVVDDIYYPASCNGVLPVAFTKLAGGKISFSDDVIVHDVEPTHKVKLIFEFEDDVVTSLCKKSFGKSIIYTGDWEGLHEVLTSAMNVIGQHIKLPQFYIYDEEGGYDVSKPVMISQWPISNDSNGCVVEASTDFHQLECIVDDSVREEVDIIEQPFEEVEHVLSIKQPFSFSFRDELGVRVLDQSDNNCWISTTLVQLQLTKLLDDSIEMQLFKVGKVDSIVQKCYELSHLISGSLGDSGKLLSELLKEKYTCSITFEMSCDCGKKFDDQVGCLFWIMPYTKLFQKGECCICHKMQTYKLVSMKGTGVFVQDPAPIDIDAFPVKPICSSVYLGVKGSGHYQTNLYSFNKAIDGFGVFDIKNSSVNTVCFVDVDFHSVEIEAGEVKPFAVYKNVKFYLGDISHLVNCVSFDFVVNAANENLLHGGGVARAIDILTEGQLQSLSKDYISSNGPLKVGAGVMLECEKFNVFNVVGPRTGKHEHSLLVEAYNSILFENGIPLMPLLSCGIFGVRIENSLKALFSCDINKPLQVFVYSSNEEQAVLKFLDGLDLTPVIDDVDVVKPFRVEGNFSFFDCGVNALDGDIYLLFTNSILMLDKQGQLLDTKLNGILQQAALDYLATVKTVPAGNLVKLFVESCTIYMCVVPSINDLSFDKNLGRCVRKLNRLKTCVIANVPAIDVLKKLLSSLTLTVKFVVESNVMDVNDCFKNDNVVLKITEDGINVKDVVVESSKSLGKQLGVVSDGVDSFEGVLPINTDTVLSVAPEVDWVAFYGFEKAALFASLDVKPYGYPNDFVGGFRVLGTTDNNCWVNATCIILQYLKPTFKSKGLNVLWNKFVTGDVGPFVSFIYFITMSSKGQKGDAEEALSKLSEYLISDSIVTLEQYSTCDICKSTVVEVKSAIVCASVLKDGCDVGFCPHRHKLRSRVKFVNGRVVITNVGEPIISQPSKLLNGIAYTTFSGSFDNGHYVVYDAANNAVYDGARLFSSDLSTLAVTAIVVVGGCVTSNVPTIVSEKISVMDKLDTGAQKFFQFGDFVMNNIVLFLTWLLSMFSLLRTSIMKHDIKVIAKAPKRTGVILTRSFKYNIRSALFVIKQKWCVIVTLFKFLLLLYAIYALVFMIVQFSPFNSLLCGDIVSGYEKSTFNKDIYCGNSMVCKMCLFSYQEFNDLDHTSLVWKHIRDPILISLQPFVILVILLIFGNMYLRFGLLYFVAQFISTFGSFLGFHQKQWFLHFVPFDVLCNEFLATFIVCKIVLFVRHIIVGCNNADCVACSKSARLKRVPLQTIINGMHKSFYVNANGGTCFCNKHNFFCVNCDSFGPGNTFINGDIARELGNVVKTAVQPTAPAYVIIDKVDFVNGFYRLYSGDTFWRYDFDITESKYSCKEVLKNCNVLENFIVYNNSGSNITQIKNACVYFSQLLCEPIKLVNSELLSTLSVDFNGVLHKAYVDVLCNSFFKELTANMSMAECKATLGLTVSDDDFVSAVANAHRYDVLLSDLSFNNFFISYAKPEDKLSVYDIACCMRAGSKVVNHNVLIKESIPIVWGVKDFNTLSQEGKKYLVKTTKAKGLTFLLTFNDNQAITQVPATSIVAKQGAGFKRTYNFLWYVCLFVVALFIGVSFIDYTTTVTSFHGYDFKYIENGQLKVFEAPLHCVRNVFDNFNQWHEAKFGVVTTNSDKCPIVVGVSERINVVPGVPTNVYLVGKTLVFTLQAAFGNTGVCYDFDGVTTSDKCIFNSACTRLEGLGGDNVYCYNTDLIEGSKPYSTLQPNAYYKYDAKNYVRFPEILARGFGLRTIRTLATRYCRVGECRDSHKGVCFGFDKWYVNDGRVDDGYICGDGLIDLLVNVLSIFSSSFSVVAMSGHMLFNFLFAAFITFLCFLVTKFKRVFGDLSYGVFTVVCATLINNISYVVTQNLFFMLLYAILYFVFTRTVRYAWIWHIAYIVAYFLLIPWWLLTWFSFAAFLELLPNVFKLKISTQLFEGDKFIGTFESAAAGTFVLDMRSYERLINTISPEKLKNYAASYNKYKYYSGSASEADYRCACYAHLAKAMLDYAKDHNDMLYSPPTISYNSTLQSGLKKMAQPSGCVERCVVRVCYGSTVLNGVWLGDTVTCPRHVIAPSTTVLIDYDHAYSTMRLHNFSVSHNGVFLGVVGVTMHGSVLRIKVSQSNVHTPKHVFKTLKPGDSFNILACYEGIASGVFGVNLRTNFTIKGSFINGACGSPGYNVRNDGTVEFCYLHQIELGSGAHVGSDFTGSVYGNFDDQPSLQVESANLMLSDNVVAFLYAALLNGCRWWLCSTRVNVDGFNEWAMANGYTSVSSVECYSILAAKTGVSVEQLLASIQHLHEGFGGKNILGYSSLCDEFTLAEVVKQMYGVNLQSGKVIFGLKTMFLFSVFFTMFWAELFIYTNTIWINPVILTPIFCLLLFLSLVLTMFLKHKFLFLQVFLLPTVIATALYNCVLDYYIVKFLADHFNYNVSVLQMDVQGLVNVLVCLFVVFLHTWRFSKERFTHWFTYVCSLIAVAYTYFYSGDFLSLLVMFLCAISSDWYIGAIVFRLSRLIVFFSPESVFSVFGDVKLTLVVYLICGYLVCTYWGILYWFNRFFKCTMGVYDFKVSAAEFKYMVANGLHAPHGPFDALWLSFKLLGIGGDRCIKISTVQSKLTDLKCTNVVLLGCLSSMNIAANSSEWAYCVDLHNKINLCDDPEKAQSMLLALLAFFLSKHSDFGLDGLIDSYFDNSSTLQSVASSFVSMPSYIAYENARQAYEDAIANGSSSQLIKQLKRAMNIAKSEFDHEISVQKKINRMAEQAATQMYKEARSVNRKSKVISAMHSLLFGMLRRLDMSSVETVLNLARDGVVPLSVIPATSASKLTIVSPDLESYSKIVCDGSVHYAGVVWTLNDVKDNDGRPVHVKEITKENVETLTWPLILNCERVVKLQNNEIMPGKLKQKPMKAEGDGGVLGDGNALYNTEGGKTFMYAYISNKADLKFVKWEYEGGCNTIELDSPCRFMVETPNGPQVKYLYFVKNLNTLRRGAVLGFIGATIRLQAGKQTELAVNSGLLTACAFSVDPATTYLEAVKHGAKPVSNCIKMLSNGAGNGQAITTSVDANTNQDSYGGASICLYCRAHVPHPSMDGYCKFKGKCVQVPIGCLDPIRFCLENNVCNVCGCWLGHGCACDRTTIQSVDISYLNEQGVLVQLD
The subject of data set [3] is BL21-DE3. Described as §1. Particulars: Severe acute respiratory syndrome-related coronavirus.
The target in the next data set is Replicase polyprotein 1a (Human coronavirus NL63, UniProt P0C6U6). Kind of data set: (§2) Inhibition of human coronavirus NL63 PLP2 (amino acids 1565 to 1894) expressed in Escherichia coli BL21 (DE3) cells assessed as reduction of AMC release using Z-RLRGG-AMC as substrate by multimode plate reader analysis.
Data set [4] addresses Replicase polyprotein 1a (Human coronavirus NL63) (UniProt P0C6U6). The data set is described as §2.
Data set [5] is described as follows: Cytotoxicity against african green monkey Vero E6 cells assessed as cell viability after 48 hrs by Cell Titer-Glo luminescent assay. Format: cell-based. Particulars: chlorocebus sabaeus. On the technique in general: Cellular ATP, detected with luciferase, serves as a proxy for viable cell number.
The subject of a further data set is Liver. Kind of data set: Half life in mouse liver microsomes at 1 uM. Format: ADME.
Data set [6] has as its system BL21-DE3. Kind of data set: Inhibition of SARS coronavirus papain-like protease (amino acids 1541 to 1855) expressed in Escherichia coli BL21 (DE3) cells assessed as decrease in AMC release using Z-RLRGG-AMC as substrate by serum shift assay based multimode plate reader analysis in presence of 5 to 20% human serum albumin. Particulars: Severe acute respiratory syndrome-related coronavirus.

Data set [7] can be described thus: Metabolic stability in mouse liver microsomes assessed as parent compound remaining at 1 uM after 15 mins. It counts as ADME. Particulars: read-out: Stability. For orientation: Liver microsomes are a subcellular fraction often used to study metabolism.
A further data set has as its system HEK293. Nature of the data set: Cytotoxicity against human HEK293 cells assessed as cell viability after 48 hrs by Cell Titer-Glo luminescent assay. It counts as cell-based. Particulars: hek293, 48 h.
Data set [8] in a line: Therapeutic index, ratio of CC50 for african green monkey Vero E6 cells to EC50 for SARS coronavirus infected in african green monkey Vero E6 cells. It counts as cell-based. Particulars: read-out: Ratio CC50/EC50.

A word on the IC50: it is the midpoint of a concentration-inhibition curve. As usually defined, the EC50 is the concentration that produces a half-maximal response. The term inhibition denotes the percentage by which the read-out fell short of the control. Usually CC50 stands for the concentration giving 50% cytotoxicity.

The structures appear in SMILES notation. Calls of active or inactive are those of the source. The calls are words filed in the database; no cut-off is given here.

Regarding `CC(c1cccc2cccnc12)N1CCC(C(=O)NCc2cccc(F)c2)CC1` (racemic), in [1], the IC50 was 7 µM. Further, the EC50 in the data set with SARS-CoV was > 50 µM.

Take `C[C@H](c1cccc2ccccc12)N1CCC(C(=O)NCc2ccc(F)c(F)c2)CC1`: the inhibition in data set [2] was > 30%. Further, the Imax came out at 78% with BL21-DE3 [3] and 48% in data set [4]. Besides, the IC50 in data set [1] came to 29.2 µM; on Replicase polyprotein 1a it was 44 µM.

Consider `O=C(NCc1ccc2c(c1)OCO2)C1CCN(C(Cc2ccccc2)c2cccc3ccccc23)CC1` (racemic), for which the IC50 in [1] was > 100 µM.

As to `C[C@H](c1cccc2ccccc12)N1CCC(C(=O)NCc2ccncc2)CC1`, the concentration for half-maximal inhibition (IC50) in data set [1] came out at 18.3 µM.

In the case of `COc1cc(CNC(=O)C2CCN([C@H](C)c3cccc4ccccc34)CC2)ccn1`, the inhibition in data set [2] is > 30%. For the same compound, the CC50 (in data set [5]; in the data set on HEK293) was > 100 µM each time. The figures for the Imax (in the data set with BL21-DE3 [3]; in [4]) were 100% and 67%, respectively. Moreover, the half-maximal inhibitory concentration (IC50) is 0.35 µM in [1] and 59 µM on Replicase polyprotein 1a. In the data set with Liver, the t1/2 was found to be 8 min. Further, in the data set with BL21-DE3 [6], the inhibition result was “Active”. In data set [7], the remaining at 0.25 h, 1 µM was 30%. Besides, in the data set on SARS-CoV, the EC50 worked out at 9.5 µM.

Regarding `C[C@H](c1cccc2ccccc12)N1CCC(C(=O)N[C@H](C)c2ccccc2)CC1`, the IC50 in [1] is 13.5 µM.

`CCc1ccc(CNC(=O)C2CCN([C@H](C)c3cccc4ccccc34)CC2)cc1`: in [1], the IC50 turned out to be 0.47 µM.

As to `C[C@H](c1cccc2ccccc12)N1CCC(C(=O)NCc2ccc(Cl)cc2)CC1`, the IC50 in data set [1] is 0.58 µM.

As to `O=C(NCc1ccc2c(c1)OCO2)C1CCN(C(CO)c2cccc3ccccc23)CC1` (racemic), in data set [1], the IC50 amounted to 32 µM.

Consider `C[C@H](c1cccc2ccccc12)N1CCC(C(=O)NCCc2cccc(F)c2)CC1`, for which, in [1], the IC50 was 1.9 µM.

In the case of `COCC(c1cccc2ccccc12)N1CCC(C(=O)NCc2ccc3c(c2)OCO3)CC1` (racemic), in data set [1], the IC50 is > 100 µM.

For `C[C@H](c1cccc2ccccc12)N1CCC(C(=O)NCc2ccccc2)CC1`, the IC50 in data set [1] stood at 2.2 µM. Further, the concentration giving a half-maximal response (EC50) in the data set on SARS-CoV was > 50 µM.

For the compound `COC[C@H](NC(=O)C1CCN([C@H](C)c2cccc3ccccc23)CC1)c1ccccc1`, in [1], the IC50 came to 18 µM.

Take `CCC(c1cccc2ccccc12)N1CCC(C(=O)NCc2ccc3c(c2)OCO3)CC1` (racemic): the IC50 in data set [1] was determined as 17.2 µM.

With `C[C@H](NC(=O)C1CCN([C@H](C)c2cccc3ccccc23)CC1)c1ccccc1`, the IC50 in data set [1] worked out at 12.7 µM.

On to `COC[C@@H](NC(=O)C1CCN([C@H](C)c2cccc3ccccc23)CC1)c1ccccc1`, for which the CC50 (in data set [5]; in the data set on HEK293) was > 100 µM each time. For the same compound, the IC50 in data set [1] stood at 1.9 µM. Further, the inhibition entry in the data set with BL21-DE3 [6] was “Active”. In data set [8], the selectivity ratio was > 8.5. Moreover, the EC50 in the data set on SARS-CoV stood at 11.7 µM.

Turning to `O=C(NCc1cccc(F)c1)C1CCN(C2CCCc3ccc4ccccc4c32)CC1` (stereo not drawn), the IC50 in [1] was found to be 5.1 µM.

As to `CC(c1cccc2ncccc12)N1CCC(C(=O)NCc2cccc(F)c2)CC1` (racemic), the IC50 in [1] worked out at 4.5 µM.

On to `CC(=O)NCc1cccc(CNC(=O)C2CCN([C@H](C)c3cccc4ccccc34)CC2)c1`, for which the IC50 in data set [1] came to 20.4 µM.

In the case of `CNC(=O)c1ccc(CNC(=O)C2CCN([C@H](C)c3cccc4ccccc34)CC2)cc1`, the IC50 in data set [1] was found to be 0.6 µM.

As for `CNC(=O)c1cccc(CNC(=O)C2CCN([C@H](C)c3cccc4ccccc34)CC2)c1`, the IC50 in data set [1] turned out to be 0.63 µM.

With `C[C@H](c1cccc2ccccc12)N1CCC(C(=O)NCc2cccnc2)CC1`, the IC50 in data set [1] was 26.3 µM.

On to `C[C@H](c1cccc2ccccc12)N1CCC(C(=O)NCc2cccc(Cl)c2)CC1`, for which the IC50 in [1] worked out at 27.2 µM.

Consider `CC(c1cccc2cnccc12)N1CCC(C(=O)NCc2cccc(F)c2)CC1` (racemic), for which the IC50 in data set [1] was 6.8 µM. Besides, the EC50 with SARS-CoV is > 50 µM.

In the case of `CC(c1nccc2ccccc12)N1CCC(C(=O)NCc2cccc(F)c2)CC1` (racemic), in [1], the IC50 was 30.8 µM.

For `C[C@H](c1cccc2ccccc12)N1CCC(C(=O)NCCc2ccc(Cl)cc2)CC1`, the IC50 in data set [1] amounted to 1.6 µM.

As to `CC(=O)Nc1ccc(CNC(=O)C2CCN([C@H](C)c3cccc4ccccc34)CC2)cc1`, in data set [2], the inhibition is > 30%. The values for the Imax (in the data set on BL21-DE3 [3]; in data set [4]) were 94% and 42%, respectively. Further, the IC50 in data set [1] came to 5.7 µM; on Replicase polyprotein 1a it was 37 µM.

For the origin of these results see ChEMBL document CHEMBL3232931 (J Med Chem, 2014).
